Source: US9328093B2, “Selective inhibitors of ubiquitin specific protease 7, the pharmaceutical compositions thereof and their therapeutic applications” (HYBRIGENICS SA, priority 2010, dated 2016)

Assays:
UCH-L3 = molecular target: T1, UCH-L3 (Homo sapiens, UniProt P15374); assay: UCH-L3 activity assay (Ub-AMC substrate); type: biochemical; details: Ub-AMC 300 nM, UCH-L3 13 pM
T1 sequence (P15374 1-230): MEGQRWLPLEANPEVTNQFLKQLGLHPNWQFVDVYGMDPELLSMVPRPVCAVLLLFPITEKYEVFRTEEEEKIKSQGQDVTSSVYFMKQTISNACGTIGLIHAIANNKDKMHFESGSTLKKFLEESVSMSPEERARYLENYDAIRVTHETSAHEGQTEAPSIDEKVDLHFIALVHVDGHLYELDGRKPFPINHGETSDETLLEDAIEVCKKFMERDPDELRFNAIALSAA
Experimental: UCH-L3 was diluted in USP buffer (50 mM Tris HCl; 0.5 mM EDTA; 5 mM DTT; 0.01% Triton X-100; Bovine Serum Albumin 0.05 mg·ml^−1 pH7.6). Compounds stocks (100 mM) were stored at −20° C. in DMSO. Compounds were tested at different concentrations: from 200 μM to 91 nM.
Reactions were performed as duplicates in Black 384 well plates (small volume microplates; Greiner; 10 μl final reaction volume). The substrate concentration for UCH-L3 was 300 nM Ub-AMC (Boston Biochem). The concentration of the enzyme (UCH-L3) in specificity assays was 13 pM. The concentrations were determined in order to perform specificity assays under initial velocities at fixed substrate concentration. Compounds were pre-incubated with enzymes for 30 minutes at 25° C. Reactions were initiated by addition of substrate to the plates containing the enzymes (+/− compounds) diluted in assay buffer. Reactions were incubated for 60 minutes at 37° C. Reactions were stopped by adding acetic acid (100 mM final). Readings were performed on a Pherastar Fluorescent Reader (BMG). λ Emission 380 nm; λ Excitation=460 nm. Data (mean values +/− standard deviation) were analyzed as % of control (no compound) and plotted as percentage versus the Log of the compound concentration using GraphPad (Prism). Data were fitted to a sigmoidal model (variable slope).

USP5 = molecular target: T2, USP5 (Homo sapiens, UniProt P45974); assay: USP5 activity assay (Ub-AMC substrate); type: biochemical; details: Ub-AMC 300 nM, USP5 300 pM
T2 sequence (P45974 1-858): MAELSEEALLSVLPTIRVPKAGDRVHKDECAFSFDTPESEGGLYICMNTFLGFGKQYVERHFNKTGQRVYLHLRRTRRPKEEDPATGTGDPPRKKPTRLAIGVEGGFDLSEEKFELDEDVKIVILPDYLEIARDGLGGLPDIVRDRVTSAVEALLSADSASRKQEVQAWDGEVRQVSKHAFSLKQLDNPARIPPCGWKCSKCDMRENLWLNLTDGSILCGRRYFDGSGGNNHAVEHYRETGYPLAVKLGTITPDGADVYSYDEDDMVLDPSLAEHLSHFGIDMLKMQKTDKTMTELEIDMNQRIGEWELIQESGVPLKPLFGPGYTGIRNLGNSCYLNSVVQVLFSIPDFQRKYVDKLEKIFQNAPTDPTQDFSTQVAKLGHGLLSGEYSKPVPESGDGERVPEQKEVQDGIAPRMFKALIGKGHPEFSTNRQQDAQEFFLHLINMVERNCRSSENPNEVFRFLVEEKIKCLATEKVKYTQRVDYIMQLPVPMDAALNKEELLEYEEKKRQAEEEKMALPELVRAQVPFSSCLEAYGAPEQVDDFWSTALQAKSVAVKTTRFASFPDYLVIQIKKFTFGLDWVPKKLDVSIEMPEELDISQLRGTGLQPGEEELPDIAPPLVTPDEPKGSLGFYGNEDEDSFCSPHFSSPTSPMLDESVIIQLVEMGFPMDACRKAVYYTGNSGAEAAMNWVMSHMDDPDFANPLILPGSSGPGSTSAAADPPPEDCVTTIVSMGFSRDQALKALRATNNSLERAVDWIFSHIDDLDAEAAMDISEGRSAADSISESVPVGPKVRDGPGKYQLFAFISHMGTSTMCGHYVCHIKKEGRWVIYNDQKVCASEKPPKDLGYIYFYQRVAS
Experimental: USP5 was diluted in USP buffer (50 mM Tris HCl; 0.5 mM EDTA; 5 mM DTT; 0.01% Triton X-100; Bovine Serum Albumin 0.05 mg·ml^−1 pH 7.6). Compounds stocks (100 mM) were stored at −20° C. in DMSO. Compounds were tested at different concentrations: from 200 μM to 91 nM.
Reactions were performed as duplicates in Black 384 well plates (small volume microplates; Greiner; 10 μl final reaction volume). The substrate concentration for USP5 was 300 nM Ub-AMC (Boston Biochem). The concentrations of the enzyme (USP5) in specificity assays was 300 pM. The concentrations were determined in order to perform specificity assays under initial velocities at fixed substrate concentration. Compounds were pre-incubated with enzymes for 30 minutes at 25° C. Reactions were initiated by addition of substrate to the plates containing the enzymes (+/− compounds) diluted in assay buffer. Reactions were incubated for 60 minutes at 37° C. Reactions were stopped by adding acetic acid (100 mM final). Readings were performed on a Pherastar Fluorescent Reader (BMG). λ Emission 380 nm; λ Excitation=460 nm. Data (mean values +/− standard deviation) were analyzed as % of control (no compound) and plotted as percentage versus the Log of the compound concentration using GraphPad (Prism). Data were fitted to a sigmoidal model (variable slope).

Row | SMILES | IC50 (UCH-L3) [µM] | IC50 (USP5) [µM]
1 | O=C(NCC(CN1CCCC1)C(O)c1ccccc1)c1ccc2c(Cl)c3c(nc2c1)CCCC3 (stereo not drawn) [Example 25, 9-chloro-N-(3-hydroxy-3-phenyl-2-pyrrolidin-1-ylmethylpropyl)-5,6,7,8-tetrahydroacridine-3-carboxamide] | > 200 | > 200
2 | O=C(NCC1CCNCC1)c1ccc2c(Cl)c3c(nc2c1)CCCC3 [Example 24, 9-chloro-N-((piperidin-4-yl)methyl)-5,6,7,8-tetrahydroacridine-3-carboxamide] | > 200 | > 200
3 | CN1CCCC1CCNC(=O)c1ccc2c(Cl)c3c(nc2c1)CCCC3 (stereo not drawn) [Example 17, 9-chloro-N-(2-(1-methylpyrrolidin-2-yl)ethyl)-5,6,7,8-tetrahydroacridino-3-carboxamide] | > 200 | > 200
4 | CC1CCCCN1CCCNC(=O)c1ccc2c(Cl)c3c(nc2c1)CCCC3 (stereo not drawn) [Example 20, 9-chloro-N-(3-(2-methylpiperidin-1-yl)propyl)-516,7,8-tetrahydroacridine-3-carboxamide] | > 200 | > 200

More lines, now with the values ahead:

Row | IC50 (UCH-L3) [µM] | IC50 (USP5) [µM] | SMILES
5 | > 200 | > 200 | O=C(NCc1cccc(CN2CCCC2)c1)c1ccc2c(Cl)c3c(nc2c1)CCCC3 [Example 18, 9-chloro-N-(3-(pyrrolidin-1-ylmethyl)benzyl)-5,6,7,8-tetrahydroacridine-3-carboxamide]
6 | > 200 | > 200 | O=C(Nc1cccc(CN2CCCC2)c1)c1ccc2c(Cl)c3c(nc2c1)CCCC3 [Example 19, 9-chloro-N-(3-(pyrrolidin-1-ylmethyl)phenyl)-5.6,7,8-tetrahydroacridine-3-carboxamide]
7 | > 200 | > 200 | CN(C)c1ccc(CN2CCC(CNC(=O)c3ccc4c(Cl)c5c(nc4c3)CCCC5)CC2)cc1 [Example 23]
8 | > 200 | > 200 | O=C(NCc1ccc(CN2CCCC2)cc1)c1ccc2c(Cl)c3c(nc2c1)CCCC3 [Example 21, 9-chloro-N-(4-(pyrrolidin-1-ylmethyl)benzyl)-5,6,7,8-tetrahydroacridine-3-carboxamide]
9 | > 200 | > 200 | COc1ccc(CN2CCC(CNC(=O)c3ccc4c(Cl)c5c(nc4c3)CCCC5)CC2)cc1 [Example 22, 9-chloro-N-((1-(4-methoxybenzyl)piperidin-4-yl)methyl)-5,6,7,8-tetrahydroacridine-3-carboxamide]
